Assay results taken from US20140335038A1, “METHOD OF STRENGTHENING HAIR FIBRES” (priority 2011, published 2014).

Assay: DSC denaturation peak temperature of treated dark brown hair
Set-up: species or system Human
Conditions: Example 4, 5 treatments, pH 5, 32° C.
Protocol: DSC measures the denaturation temperature of the α-helical proteins in the microfibrils of the hair fibre. This temperature is influenced by the cross-link density of the surrounding matrix proteins (Wortmann et al., J. Cosmet. Sci., 53, 219-228 (2002)). A higher denaturation peak temperature indicates greater integrity of the fibre. Damage repair was assessed using DSC. A Mettler Toledo DSC1 analyser was used. The hair was shaved, using clippers, into 1-2 mm lengths. Approximately 5 mg of sample was weighed into a pressure resistant (20 bar), stainless steel, large volume pan (120 μL capacity). 50 μL of water was added and the pan was sealed. The samples were then mixed using a rotary mixer and left overnight to allow the water to equilibrate throughout the sample. […] The helix transition temperature was measured. Each sample was measured three times. Selected 2'' hair switches were bleached once using […] […] 4200 μL Britton-Robinson buffer (62.5 mM pH 5; final concentration 50 mM) 600 μl hydrogen peroxide 3% (SBP- or HRP-treated sample and (+)-catechin/H2O2 treated sample) or 600 μL milliQ water (laccase-treated sample and (+)-catechin treated sample) 600 μL (+)-catechin, 100 mg/mL stock in DMSO The reagents listed above were combined in 15 mL Falcon centrifuge tubes. […] Samples were measured three times.

In the case of `Oc1cc(O)c2c(c1)O[C@H](c1ccc(O)c(O)c1)[C@@H](O)C2` [(+)-Catechin, (+)-catechin], the Denaturation peak temperature (dark brown hair bleached x1) is reported as 153.38 +/− 0.43 °C and the Denaturation peak temperature (unbleached dark brown hair) is reported as 151.16 +/− 0.49 °C.
